The values below come from US4009264A, “Complexes of polysaccharides or derivatives thereof with reduced glutathione and process for preparing said complexes” (Meito Sangyo Kabushiki Kaisha, priority 1975, dated 1977).

A short description of data set [1]: Auto-oxidation of other SH-containing compounds in the presence and absence of the complex (amperometric silver titration). The class given is physicochemical. Conditions: 37° C. The procedure: In these Figures, the axis of abscissa represents the incubating time in minutes, and the axis of ordinates, the SH redidual ratio (%) of the above compounds.
The above residual ratio is measured after dissolving the sample in a sodium phosphate buffer (0.1 m, pH 8.0) in the presence of copper sulfate (5 × 10^-^7 m), and incubating at 37° C. The SH content is measured by an amperometric silver titration.

Data set [2] can be described thus: Stability of the thiol group to auto-oxidation: residual ratio of the active SH group (residual activity). The class given is physicochemical. The following applies: 40° C.
Procedure: The residual ratio of the active SH group, or simply called the residual activity, as used in this application is determined as follows:
The complex of this invention and other SH-containing compounds are incubated at a certain termperature in a sodium phosphate buffer (0.1 M, pH 8.0). Aliquotes are withdrawn at intervals and immediately the active SH group contents of the samples are determined. The maximum content obtained is made 100 (%), and the active SH group content of each of the samples is expressed in percentage based on this maximum content.
The test system of data set [3] is damage of liver induced by D-galactosamine hydrochloride. The data set can be described thus: Prophylactic activity on damage of liver induced by D-galactosamine hydrochloride. The class given is in vivo, Wister female rats. Conditions: administered beforehand; summary of Table 1.
Procedure: The damage of liver was induced by administering D-galactosamine hydrochloride.
Wister female rats weighing 100 to 120 g (10 in a group) which had been fasted for 2 hours were used. Three groups were prepared. […] Still another group was administered only with 1 ml. of an isotonic sodium chloride solution. One hour after the administration, a solution obtained by dissolving 50 mg of D-glactosamine hydrochloride in 1 ml. of an isotonic sodium chloride solution and adjusting the pH of the solution to 7.0 with 0.1N sodium hydroxide was administered intraperitoneally.
After a lapse of 22 hours from the administration of D-galactosamine hydrochloride, blood was extracted from the abdominal aorta. GOT, GPT, bilirubin, and glucose in the plasma were measured. Furthermore, the liver was cut out, and its lipid and neutral fat were measured.
The conditions of data set [4]: literature report; cited from earlier work.

`NCCS` [cysteamine]: the “SH residual ratio of cysteamine alone” value in data set [1] (60 minutes, sodium phosphate buffer pH 8.0, copper sulfate 5 × 10^-7 M) is recorded as “zero”.
For `CC(C)(S)[C@@H](N)C(=O)O` [penicillamine], in data set [1] (60 minutes, pH 8.0, copper sulfate 5 × 10^-7 M), the “SH residual ratio of penicillamine alone” value is “about 15%”.
As for `N[C@@H](CCC(=O)N[C@@H](CS)C(=O)NCC(=O)O)C(=O)O` [reduced glutathione], in data set [1] (180 minutes, final concentration 1 × 10^-3 M, pH 8.0, copper sulfate 5 × 10^-7 M), the “SH residual ratio of reduced glutathione alone” value is on record as “about 20%”. In data set [2] (after 6 hours, sodium phosphate buffer 0.1 M pH 8.0, FeCl3 1.2 × 10^-5 M), the “residual ratio of the active SH group (residual activity of the reduced glutathione)” value is “about 40%”. The “residual ratio of the active SH group” value in data set [2] (after 8 hours, sodium phosphate buffer 0.1 M pH 8.0) is on record as “about 20%”. For the same compound, the “inhibition of the D-galactosamine-induced increase (GOT, GPT, bilirubin, liver lipid, neutral fat) or decrease (glucose)” value in data set [3] is “inhibited”.
On to “complex of dextran and insulin: literature complex of activated dextran and insulin (Acta Chem. Scand. 25, 1855-1859, 1971)”, for which the “activity relative to the free insulin” value in data set [4] was 1/36.
